Legend:
Assay in all cases: Off-Target Kinase Profiling
Assay type in all cases: biochemical
Settings in all cases: 10 μM; ATP near Km
[1] = target: T1, CHK2 (Homo sapiens, UniProt O96017)
T1 construct: purchased Millipore, Inc. (KinaseProfiler service)
Outline: (§1)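 First, ATP was set near the Km of the kinase; next, compound was tested at 10 μM in duplicate; finally, remaining activity was reported as the average percent of control.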

[2] = target: T2, ITK (Homo sapiens, UniProt Q08881)
T2 construct: purchased Millipore, Inc. (KinaseProfiler service)
Outline: as §1

[3] = target: T3, TAO2 (Homo sapiens, UniProt Q9UL54)
T3 construct: purchased Millipore, Inc. (KinaseProfiler service)
Outline: as §1

[4] = target: T4, Mer (Homo sapiens, UniProt Q12866)
T4 construct: purchased Millipore, Inc. (KinaseProfiler service)
Outline: as §1

[5] = target: T5, MSK1 (Homo sapiens, UniProt O75582)
T5 construct: purchased Millipore, Inc. (KinaseProfiler service)
T5 sequence (O75582 whole entry): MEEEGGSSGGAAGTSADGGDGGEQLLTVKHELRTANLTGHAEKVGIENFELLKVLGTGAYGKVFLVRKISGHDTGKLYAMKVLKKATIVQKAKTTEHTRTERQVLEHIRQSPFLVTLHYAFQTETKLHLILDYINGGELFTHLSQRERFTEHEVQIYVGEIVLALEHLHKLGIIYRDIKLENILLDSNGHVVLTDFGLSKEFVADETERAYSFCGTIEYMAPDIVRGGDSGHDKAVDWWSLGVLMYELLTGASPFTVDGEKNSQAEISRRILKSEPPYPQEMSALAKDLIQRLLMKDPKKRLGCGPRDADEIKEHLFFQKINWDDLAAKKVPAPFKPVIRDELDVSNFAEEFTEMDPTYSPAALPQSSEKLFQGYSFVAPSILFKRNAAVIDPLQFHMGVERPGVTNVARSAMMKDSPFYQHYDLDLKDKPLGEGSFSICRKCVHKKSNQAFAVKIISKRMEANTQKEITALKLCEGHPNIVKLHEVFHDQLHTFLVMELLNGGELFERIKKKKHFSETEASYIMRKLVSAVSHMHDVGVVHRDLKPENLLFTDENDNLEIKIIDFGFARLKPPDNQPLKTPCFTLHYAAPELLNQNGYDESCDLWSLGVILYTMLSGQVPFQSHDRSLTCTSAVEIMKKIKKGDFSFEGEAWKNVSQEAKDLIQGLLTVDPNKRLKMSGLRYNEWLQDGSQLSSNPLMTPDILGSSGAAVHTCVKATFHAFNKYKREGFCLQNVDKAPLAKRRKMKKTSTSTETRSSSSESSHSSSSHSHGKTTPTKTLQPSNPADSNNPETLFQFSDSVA
Outline: as §1

[6] = target: T6, EphB1 (Homo sapiens, UniProt P54762)
T6 construct: purchased Millipore, Inc. (KinaseProfiler service)
Outline: as §1

[7] = target: T7, TAO3 (Homo sapiens, UniProt Q9H2K8)
T7 construct: purchased Millipore, Inc. (KinaseProfiler service)
Outline: as §1

[8] = target: T8, CK1gamma3 (Homo sapiens, UniProt Q9Y6M4)
T8 construct: purchased Millipore, Inc. (KinaseProfiler service)
Outline: as §1

[9] = target: T9, CAMK1 (Homo sapiens, UniProt Q14012)
T9 construct: purchased Millipore (KinaseProfiler service)
T9 sequence (Q14012 whole entry): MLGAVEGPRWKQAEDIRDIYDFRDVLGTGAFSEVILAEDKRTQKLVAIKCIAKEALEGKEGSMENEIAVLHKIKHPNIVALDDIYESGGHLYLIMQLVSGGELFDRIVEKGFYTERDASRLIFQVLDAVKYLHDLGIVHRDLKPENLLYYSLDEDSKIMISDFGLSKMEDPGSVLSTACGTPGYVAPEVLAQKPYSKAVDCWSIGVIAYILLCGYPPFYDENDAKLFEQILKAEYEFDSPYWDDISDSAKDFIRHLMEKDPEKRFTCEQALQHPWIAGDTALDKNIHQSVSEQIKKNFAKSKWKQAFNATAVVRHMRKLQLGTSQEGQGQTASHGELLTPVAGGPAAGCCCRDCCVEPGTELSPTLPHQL
Outline: as §1

[10] = target: T10, EphA7 (Homo sapiens, UniProt Q15375)
T10 construct: purchased Millipore, Inc. (KinaseProfiler service)
Outline: as §1

[11] = target: T11, PKAC-alpha (Homo sapiens, UniProt P17612)
T11 construct: purchased Millipore, Inc. (KinaseProfiler service)
Outline: as §1

[12] = test system: c-RAF
Outline: as §1

[13] = target: T12, Rse (Homo sapiens, UniProt Q06418)
T12 construct: purchased Millipore, Inc. (KinaseProfiler service)
Outline: as §1

[14] = target: T13, MST2 (Homo sapiens, UniProt Q13188)
T13 construct: purchased Millipore, Inc. (KinaseProfiler service)
Outline: as §1

[15] = target: T14, JAK2 (Homo sapiens, UniProt O60674)
T14 construct: purchased Millipore, Inc. (KinaseProfiler service)
Outline: as §1

[16] = target: T15, TrkA (Homo sapiens, UniProt P04629)
T15 construct: purchased Millipore, Inc. (KinaseProfiler service)
Outline: as §1

[17] = target: T16, PKCdelta (Homo sapiens, UniProt Q05655)
T16 construct: purchased Millipore, Inc. (KinaseProfiler service)
Outline: as §1

[18] = target: T17, PAK6 (Homo sapiens, UniProt Q9NQU5)
T17 construct: purchased Millipore, Inc. (KinaseProfiler service)
Outline: as §1

[19] = target: T18, p38delta (Homo sapiens, UniProt O15264)
T18 construct: purchased Millipore, Inc. (KinaseProfiler service)
T18 sequence (O15264 whole entry): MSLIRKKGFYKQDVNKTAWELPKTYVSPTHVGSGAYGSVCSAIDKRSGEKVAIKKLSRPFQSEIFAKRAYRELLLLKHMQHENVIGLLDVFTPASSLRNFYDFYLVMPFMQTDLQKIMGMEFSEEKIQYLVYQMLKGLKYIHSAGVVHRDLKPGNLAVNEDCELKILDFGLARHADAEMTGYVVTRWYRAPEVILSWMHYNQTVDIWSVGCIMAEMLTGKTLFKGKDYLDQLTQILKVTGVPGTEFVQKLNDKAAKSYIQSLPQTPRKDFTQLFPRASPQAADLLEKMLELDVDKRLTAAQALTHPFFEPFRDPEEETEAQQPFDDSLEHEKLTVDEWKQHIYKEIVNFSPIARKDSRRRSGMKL
Outline: as §1

[20] = target: T19, FAK2 (Homo sapiens, UniProt Q14289)
T19 construct: purchased Millipore, Inc. (KinaseProfiler service)
T19 sequence (Q14289 whole entry): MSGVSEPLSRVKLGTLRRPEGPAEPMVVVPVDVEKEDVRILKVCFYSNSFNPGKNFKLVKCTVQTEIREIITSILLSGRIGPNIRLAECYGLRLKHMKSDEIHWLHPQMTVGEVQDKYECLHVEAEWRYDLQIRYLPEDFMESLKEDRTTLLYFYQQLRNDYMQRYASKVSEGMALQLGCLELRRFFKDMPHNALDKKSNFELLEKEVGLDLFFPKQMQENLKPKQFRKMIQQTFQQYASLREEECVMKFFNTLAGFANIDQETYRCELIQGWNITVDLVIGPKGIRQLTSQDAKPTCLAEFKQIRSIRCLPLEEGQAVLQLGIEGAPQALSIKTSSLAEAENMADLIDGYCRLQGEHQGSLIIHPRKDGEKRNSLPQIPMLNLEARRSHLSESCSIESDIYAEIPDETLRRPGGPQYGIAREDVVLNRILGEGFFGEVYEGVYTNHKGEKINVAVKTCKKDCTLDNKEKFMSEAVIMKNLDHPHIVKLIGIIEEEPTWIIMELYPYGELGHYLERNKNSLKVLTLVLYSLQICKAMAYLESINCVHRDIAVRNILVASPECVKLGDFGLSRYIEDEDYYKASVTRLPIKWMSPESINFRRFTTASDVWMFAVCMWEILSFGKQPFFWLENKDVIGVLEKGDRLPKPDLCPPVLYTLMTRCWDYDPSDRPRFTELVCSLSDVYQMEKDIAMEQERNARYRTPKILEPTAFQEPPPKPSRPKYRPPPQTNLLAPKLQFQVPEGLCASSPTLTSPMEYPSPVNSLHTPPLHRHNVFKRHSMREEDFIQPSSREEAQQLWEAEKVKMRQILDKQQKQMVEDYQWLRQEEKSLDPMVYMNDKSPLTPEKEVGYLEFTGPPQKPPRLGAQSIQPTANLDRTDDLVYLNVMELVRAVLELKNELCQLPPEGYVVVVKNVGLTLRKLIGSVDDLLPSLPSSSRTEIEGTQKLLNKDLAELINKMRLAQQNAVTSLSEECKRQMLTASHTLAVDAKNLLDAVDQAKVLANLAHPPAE
Outline: as §1

[21] = target: T20, PAK5 (Homo sapiens, UniProt Q9P286)
T20 construct: purchased Millipore, Inc. (KinaseProfiler service)
Outline: as §1

[22] = target: T21, CLK2 (Homo sapiens, UniProt P49760)
T21 construct: purchased Millipore, Inc. (KinaseProfiler service)
Outline: as §1

[23] = target: T22, Yes (Homo sapiens, UniProt P07947)
T22 construct: purchased Millipore, Inc. (KinaseProfiler service)
Outline: as §1

[24] = target: T23, PKCepsilon (Homo sapiens, UniProt Q02156)
T23 construct: purchased Millipore, Inc. (KinaseProfiler service)
Outline: as §1

[25] = target: T24, Flt1 (Homo sapiens, UniProt P17948)
T24 construct: purchased Millipore, Inc. (KinaseProfiler service)
Outline: as §1

[26] = target: T25, MuSK (Homo sapiens, UniProt O15146)
T25 construct: purchased Millipore, Inc. (KinaseProfiler service)
Outline: as §1

[27] = target: T26, ROCK-I (Homo sapiens, UniProt Q13464)
T26 construct: purchased Millipore, Inc. (KinaseProfiler service)
Outline: as §1

[28] = target: T27, DCAMKL2 (Homo sapiens, UniProt Q8N568)
T27 construct: purchased Millipore, Inc. (KinaseProfiler service)
Outline: as §1

[29] = target: T28, SGK3 (Homo sapiens, UniProt Q96BR1)
T28 construct: purchased Millipore, Inc. (KinaseProfiler service)
Outline: as §1

[30] = target: T29, ERK1 (Homo sapiens, UniProt P27361)
T29 construct: purchased Millipore, Inc. (KinaseProfiler service)
Outline: as §1

[31] = target: T30, Ret (Homo sapiens, UniProt P07949)
T30 construct: purchased Millipore, Inc. (KinaseProfiler service)
Outline: as §1

[32] = target: T31, Ros (Homo sapiens, UniProt P08922)
T31 construct: purchased Millipore, Inc. (KinaseProfiler service)
Outline: as §1

[33] = target: T32, CDK9/cyclinT1 (Homo sapiens, UniProt P50750)
T32 construct: purchased Millipore, Inc. (KinaseProfiler service)
T32 sequence (P50750 whole entry): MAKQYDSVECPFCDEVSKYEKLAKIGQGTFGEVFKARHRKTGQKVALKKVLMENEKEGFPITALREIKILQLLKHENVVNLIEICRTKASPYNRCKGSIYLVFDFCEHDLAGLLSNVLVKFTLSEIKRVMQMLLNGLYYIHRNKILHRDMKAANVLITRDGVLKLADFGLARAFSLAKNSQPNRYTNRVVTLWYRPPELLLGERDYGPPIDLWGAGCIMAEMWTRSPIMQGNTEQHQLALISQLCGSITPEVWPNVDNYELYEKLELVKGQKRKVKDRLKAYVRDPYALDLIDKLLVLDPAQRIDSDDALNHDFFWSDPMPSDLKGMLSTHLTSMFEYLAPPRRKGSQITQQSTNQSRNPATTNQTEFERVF
T32 sequence (O60563 whole entry partner): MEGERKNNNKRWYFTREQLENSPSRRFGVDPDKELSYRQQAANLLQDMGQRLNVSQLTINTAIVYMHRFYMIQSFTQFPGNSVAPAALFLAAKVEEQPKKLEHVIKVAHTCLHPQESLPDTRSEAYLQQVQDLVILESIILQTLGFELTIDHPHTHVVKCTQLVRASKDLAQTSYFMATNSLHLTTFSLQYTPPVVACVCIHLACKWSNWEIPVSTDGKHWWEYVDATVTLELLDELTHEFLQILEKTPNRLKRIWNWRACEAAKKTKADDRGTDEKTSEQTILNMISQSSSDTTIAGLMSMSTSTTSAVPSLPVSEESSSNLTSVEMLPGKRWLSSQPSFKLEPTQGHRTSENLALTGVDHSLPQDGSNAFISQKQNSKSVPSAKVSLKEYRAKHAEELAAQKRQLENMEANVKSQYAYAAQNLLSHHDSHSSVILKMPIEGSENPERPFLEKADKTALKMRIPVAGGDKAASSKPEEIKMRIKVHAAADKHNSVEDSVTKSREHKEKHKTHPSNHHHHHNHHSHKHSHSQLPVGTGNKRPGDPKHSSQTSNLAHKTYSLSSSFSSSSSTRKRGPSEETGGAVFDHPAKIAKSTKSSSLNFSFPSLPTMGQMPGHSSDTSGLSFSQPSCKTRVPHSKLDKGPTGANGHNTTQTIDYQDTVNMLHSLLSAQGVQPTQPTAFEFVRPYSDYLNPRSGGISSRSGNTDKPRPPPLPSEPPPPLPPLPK
Outline: as §1

[34] = target: T33, Ron (Homo sapiens, UniProt Q04912)
T33 construct: purchased Millipore, Inc. (KinaseProfiler service)
Outline: as §1

[35] = target: T34, DDR2 (Homo sapiens, UniProt Q16832)
T34 construct: purchased Millipore, Inc. (KinaseProfiler service)
Outline: as §1

[36] = target: T35, Tie2 (Homo sapiens, UniProt Q02763)
T35 construct: purchased Millipore, Inc. (KinaseProfiler service)
Outline: as §1

[37] = target: T36, TEC Activated (Homo sapiens, UniProt P42680)
T36 construct: purchased Millipore, Inc. (KinaseProfiler service)
Outline: as §1

[38] = target: T37, IGF-1R (Homo sapiens, UniProt P08069)
T37 construct: purchased Millipore, Inc. (KinaseProfiler service)
T37 sequence (P08069 31-1367): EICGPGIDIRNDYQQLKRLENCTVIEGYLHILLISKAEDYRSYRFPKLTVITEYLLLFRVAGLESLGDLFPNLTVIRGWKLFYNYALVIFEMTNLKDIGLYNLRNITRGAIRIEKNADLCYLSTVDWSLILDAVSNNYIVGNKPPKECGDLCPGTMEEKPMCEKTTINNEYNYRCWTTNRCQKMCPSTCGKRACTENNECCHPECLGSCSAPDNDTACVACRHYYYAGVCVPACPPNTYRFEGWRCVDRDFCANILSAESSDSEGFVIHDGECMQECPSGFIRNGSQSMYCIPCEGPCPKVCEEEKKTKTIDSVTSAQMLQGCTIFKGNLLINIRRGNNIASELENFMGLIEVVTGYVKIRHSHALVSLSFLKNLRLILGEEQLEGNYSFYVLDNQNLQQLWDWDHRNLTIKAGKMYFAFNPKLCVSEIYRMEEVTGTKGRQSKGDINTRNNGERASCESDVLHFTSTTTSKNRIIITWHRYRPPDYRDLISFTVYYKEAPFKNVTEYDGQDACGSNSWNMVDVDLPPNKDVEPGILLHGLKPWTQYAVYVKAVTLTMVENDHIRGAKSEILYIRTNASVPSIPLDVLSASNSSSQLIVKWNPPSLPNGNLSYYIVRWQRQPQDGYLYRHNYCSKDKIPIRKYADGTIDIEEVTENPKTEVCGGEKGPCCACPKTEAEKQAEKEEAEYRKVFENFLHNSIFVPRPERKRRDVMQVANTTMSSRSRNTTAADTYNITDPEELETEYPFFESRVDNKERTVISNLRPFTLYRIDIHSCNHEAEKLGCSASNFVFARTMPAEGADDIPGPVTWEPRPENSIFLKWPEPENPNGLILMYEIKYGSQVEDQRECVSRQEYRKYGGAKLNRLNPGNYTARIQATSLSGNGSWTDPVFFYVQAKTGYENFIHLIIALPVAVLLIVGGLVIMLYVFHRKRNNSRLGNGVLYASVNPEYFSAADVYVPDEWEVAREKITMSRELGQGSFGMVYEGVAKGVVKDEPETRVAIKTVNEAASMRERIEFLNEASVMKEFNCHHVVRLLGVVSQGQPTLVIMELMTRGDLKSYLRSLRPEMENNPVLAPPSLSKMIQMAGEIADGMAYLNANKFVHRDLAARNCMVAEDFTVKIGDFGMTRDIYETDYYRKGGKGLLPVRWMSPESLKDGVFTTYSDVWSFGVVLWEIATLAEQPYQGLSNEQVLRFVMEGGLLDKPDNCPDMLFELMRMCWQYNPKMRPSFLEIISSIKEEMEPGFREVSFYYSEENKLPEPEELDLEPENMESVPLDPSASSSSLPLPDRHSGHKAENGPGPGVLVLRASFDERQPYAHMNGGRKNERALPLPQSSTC
Outline: as §1

[39] = target: T38, WNK3 (Homo sapiens, UniProt Q9BYP7)
T38 construct: purchased Millipore, Inc. (KinaseProfiler service)
Outline: as §1

[40] = target: T39, IGF-1R Activated (Homo sapiens, UniProt P08069)
T39 construct: purchased Millipore, Inc. (KinaseProfiler service)
Outline: as §1

[41] = target: T40, MAPKAP-K2 (Homo sapiens, UniProt P49137)
T40 construct: purchased Millipore, Inc. (KinaseProfiler service)
Outline: as §1

COCc1ccc(C2CCC2)c(CNC(=O)Nc2c(C)c(-c3cnc(C)nc3)nn2-c2ccccc2)c1 [Example 10, 1-(2-cyclobutyl-5-(methoxymethyl)benzyl)-3-(4-methyl-3-(2-methylpyrimidin-5-yl)-1-phenyl-1H-pyrazol-5-yl)urea]
Avg POC CHK2 [1]: 93 POC
Avg POC ITK [2]: 112 POC
Avg POC TAO2 [3]: 97.5 POC
Avg POC Mer [4]: 87.5 POC
Avg POC MSK1 [5]: 88.5 POC
Avg POC EphB1 [6]: 131 POC
Avg POC TAO3 [7]: 88.5 POC
Avg POC CK1gamma3 [8]: 39 POC
Avg POC CAMK1 [9]: 92 POC
Avg POC EphA7 [10]: 92.5 POC
Avg POC PKAC-alpha [11]: 132 POC
Avg POC c-RAF [12]: 90 POC
Avg POC Rse [13]: 103 POC
Avg POC MST2 [14]: 97.5 POC
Avg POC JAK2 [15]: 106.5 POC
Avg POC TrkA [16]: −1 POC
Avg POC PKCdelta [17]: 91.5 POC
Avg POC PAK6 [18]: 95.5 POC
Avg POC p38delta [19]: 81 POC
Avg POC FAK2 [20]: 96 POC
Avg POC PAK5 [21]: 96.5 POC
Avg POC CLK2 [22]: 97.5 POC
Avg POC Yes [23]: 88.5 POC
Avg POC PKCepsilon [24]: 83.5 POC
Avg POC Flt1 [25]: 88 POC
Avg POC MuSK [26]: 95 POC
Avg POC ROCK-I [27]: 114 POC
Avg POC DCAMKL2 [28]: 96.5 POC
Avg POC SGK3 [29]: 92.5 POC
Avg POC ERK1 [30]: 89.5 POC
Avg POC Ret [31]: 89.5 POC
Avg POC Ros [32]: 97.5 POC
Avg POC CDK9/cyclinT1 [33]: 98 POC
Avg POC Ron [34]: 100.5 POC
Avg POC DDR2 [35]: 105.5 POC
Avg POC Tie2 [36]: 81.5 POC
Avg POC TEC Activated [37]: 88.5 POC
Avg POC IGF-1R [38]: 82 POC
Avg POC WNK3 [39]: 101.5 POC
Avg POC IGF-1R Activated [40]: 93.5 POC
Avg POC MAPKAP-K2 [41]: 106 POC

COCc1ccc(C(F)(F)F)c(CNC(=O)Nc2c(C)c(-c3cnn(C)c3)nn2-c2ccccc2)c1 [Example 33, 1-(1′,4-dimethyl-1-phenyl-1H,1′H-[3,4′-bipyrazol]-5-yl)-3-(5-(methoxymethyl)-2-(trifluoromethyl)benzyl)urea]
Avg POC CHK2 [1]: 138 POC
Avg POC ITK [2]: 124 POC
Avg POC TAO2 [3]: 92.5 POC
Avg POC Mer [4]: 96.5 POC
Avg POC MSK1 [5]: 147 POC
Avg POC EphB1 [6]: 133 POC
Avg POC TAO3 [7]: 89.5 POC
Avg POC CK1gamma3 [8]: 119.5 POC
Avg POC CAMK1 [9]: 111.5 POC
Avg POC EphA7 [10]: 94.5 POC
Avg POC PKAC-alpha [11]: 139.5 POC
Avg POC c-RAF [12]: 94.5 POC
Avg POC Rse [13]: 110 POC
Avg POC MST2 [14]: 98 POC
Avg POC JAK2 [15]: 130 POC
Avg POC TrkA [16]: −1 POC
Avg POC PKCdelta [17]: 93 POC
Avg POC PAK6 [18]: 147.5 POC
Avg POC p38delta [19]: 85 POC
Avg POC FAK2 [20]: 108 POC
Avg POC PAK5 [21]: 144.5 POC
Avg POC CLK2 [22]: 131.5 POC
Avg POC Yes [23]: 113 POC
Avg POC PKCepsilon [24]: 92 POC
Avg POC Flt1 [25]: 91 POC
Avg POC MuSK [26]: 94.5 POC
Avg POC ROCK-I [27]: 120.5 POC
Avg POC DCAMKL2 [28]: 254.5 POC
Avg POC SGK3 [29]: 150 POC
Avg POC ERK1 [30]: 95.5 POC
Avg POC Ret [31]: 91 POC
Avg POC Ros [32]: 100.5 POC
Avg POC CDK9/cyclinT1 [33]: 108 POC
Avg POC Ron [34]: 95.5 POC
Avg POC DDR2 [35]: 111 POC
Avg POC Tie2 [36]: 137.5 POC
Avg POC TEC Activated [37]: 138.5 POC
Avg POC IGF-1R [38]: 44 POC
Avg POC WNK3 [39]: 111 POC
Avg POC IGF-1R Activated [40]: 86.5 POC
Avg POC MAPKAP-K2 [41]: 146 POC

— patent publication US9969694B2, “N-(arylalkyl)-N′-pyrazolyl-urea, thiourea, guanidine and cyanoguanidine compounds as TrkA kinase inhibitors” (Array BioPharma Inc., priority 2012, dated 2018)
